{
  "source": "patent US10149887B2",
  "about": "“Peptides and peptidomimetics in combination with t cell activating and/or checkpoint inhibiting agents for cancer treatment” (CanBas Co., Ltd., priority 2015, dated 2018)",
  "note": "Square brackets hold non-standard residues; d marks the D form. Peptide text beside a SMILES is read from it. Phe(F5) = N[C@@H](Cc1c(F)c(F)c(F)c(F)c1F)C(=O)O; dPhe(F5) = N[C@H](Cc1c(F)c(F)c(F)c(F)c1F)C(=O)O; Cha = N[C@@H](CC1CCCCC1)C(=O)O; dCha = N[C@H](CC1CCCCC1)C(=O)O; Aun = NCCCCCCCCCCC(=O)O",
  "data": [
    {"test_system": "Jurkat cells", "assay": "Side effect of peptide used alone: Jurkat cell cycle disturbance (flow cytometry)", "type": "cell-based", "procedure": "Cell-cycle analysis The cell cycle status of the cells treated with bleomycin or adriamcin were analyzed by flow cytometry as described by Kawabe (1997) Nature 385:454-458. In brief, two million cells were re-suspended and incubated in 200 μl Krishan's solution (0.1% Sodium citrate, 50 μg/ml PI, 20 μg/ml RNase A and 0.5% NP-40) for 1 hr at 4° C. and analyzed by a flow cytometry, FACScan™ (Beckton Dickinson, Mountain View, Calif.) with the program CELLQuest™ (Beckton Dickinson).\nThe “Appearance of side effect when used alone” indicates the peptide/peptidomimetic dose that produced Jurkat cell cycle disturbance, i.e., the appearance of significant amounts of SubG1 cells (dead cells) or cells in which the DNA content of each varies more than usual. […] The “G2 abrogating dose” indicates the peptide/peptidomimetic dose with 40 μg/ml bleomycine that produced detectable G2 checkpoint abrogation activity following treatment for 24 hours. The “Appearance of side effect when used with colchicine” indicates the peptide/peptidomimetic dose with 5 μg/ml colchicine that produced Jurkat cell cycle disturbance following treatment for 24 hours.", "units": {"Appearance of side effect when used alone": "µM"}, "values": [
      {"compound": "N=C(N)NCCC[C@H](NC(=O)[C@H](CCCNC(=N)N)NC(=O)[C@H](CCCNC(=N)N)NC(=O)[C@H](CCC(N)=O)NC(=O)[C@H](CCCNC(=N)N)NC(=O)[C@@H](N)CCCNC(=N)N)C(=O)N[C@@H](CC1CCCCC1)C(=O)N[C@@H](Cc1c(F)c(F)c(F)c(F)c1F)C(=O)N[C@@H](CCCNC(=N)N)C(=O)N[C@@H](CO)C(=O)N1CCC[C@H]1C(=O)N[C@@H](CO)C(=O)N[C@@H](Cc1ccc(O)cc1)C(=O)N[C@@H](Cc1ccc(O)cc1)C(=O)O", "note": "[CBP431, (1-Arg)(1-Arg)(1-Gln)(1-Arg)(1-Arg)(1-Arg)(1-Cha)(1-Phe-2,3,4,5,6-F)(1-Arg)(1-Ser)(1-Pro)(1-Ser)(1-Tyr)(1-Tyr)] (H-RRQRRR[Cha][Phe(F5)]RSPSYY-OH; N-terminus and C-terminus assumed)", "Appearance of side effect when used alone": ">50"},
      {"compound": "N[C@@H](Cc1ccc(O)cc1)C(=O)NCCCCCCCCCCC(=O)N[C@H](Cc1c(F)c(F)c(F)c(F)c1F)C(=O)N[C@H](CC1CCCCC1)C(=O)O", "note": "[CBP462, (1-Tyr)(1-aminoundecanoic acid)(d-Phe-2,3,4,5,6-F)(d-Cha)] (H-Y[Aun][dPhe(F5)][dCha]-OH; N-terminus and C-terminus assumed)", "Appearance of side effect when used alone": ">50"},
      {"compound": "N[C@H](Cc1c(F)c(F)c(F)c(F)c1F)C(=O)N[C@H](CC1CCCCC1)C(=O)O", "note": "[CBP470, (d-Phe-2,3,4,5,6-F)(d-Cha)] (H-[dPhe(F5)]-[dCha]-OH; N-terminus and C-terminus assumed)", "Appearance of side effect when used alone": ">50"},
      {"compound": "NCCCCCCCCCCC(=O)N[C@H](Cc1c(F)c(F)c(F)c(F)c1F)C(=O)N[C@H](CC1CCCCC1)C(=O)O", "note": "[CBP464, (1-aminoundecanoic acid)(d-Phe-2,3,4,5,6-F)(d-Cha)] (H-[Aun]-[dPhe(F5)]-[dCha]-OH; N-terminus and C-terminus assumed)", "Appearance of side effect when used alone": ">50"},
      {"compound": "N=C(N)NCCC[C@H](NC(=O)[C@H](CCCNC(=N)N)NC(=O)[C@@H](N)CCCNC(=N)N)C(=O)N[C@@H](CC1CCCCC1)C(=O)N[C@@H](Cc1c(F)c(F)c(F)c(F)c1F)C(=O)N[C@@H](CCCNC(=N)N)C(=O)N[C@@H](CO)C(=O)N1CCC[C@H]1C(=O)N[C@@H](CO)C(=O)N[C@@H](Cc1ccc(O)cc1)C(=O)N[C@@H](Cc1ccc(O)cc1)C(=O)O", "note": "[CBP430, (1-Arg)(1-Arg)(1-Arg)(1-Cha)(1-Phe-2,3,4,5,6-F)(1-Arg)(1-Ser)(1-Pro)(1-Ser)(1-Tyr)(1-Tyr)] (H-RRR[Cha][Phe(F5)]RSPSYY-OH; N-terminus and C-terminus assumed)", "Appearance of side effect when used alone": ">50"},
      {"compound": "N=C(N)NCCC[C@@H](NC(=O)[C@@H](CCCNC(=N)N)NC(=O)[C@@H](CCC(N)=O)NC(=O)[C@@H](CCCNC(=N)N)NC(=O)[C@@H](CCCNC(=N)N)NC(=O)[C@@H](CCCNC(=N)N)NC(=O)[C@@H](CC1CCCCC1)NC(=O)[C@@H](Cc1c(F)c(F)c(F)c(F)c1F)NC(=O)[C@@H](CO)NC(=O)[C@@H](Cc1c[nH]c2ccccc12)NC(=O)[C@@H](CO)NC(=O)[C@@H](CO)NC(=O)[C@H](N)Cc1ccc(O)cc1)C(=O)O", "note": "[CBP481, (d-Tyr)(d-Ser)(d-Ser)(d-Trp)(d-Ser)(d-Phe-2,3,4,5,6-F)(d-Cha)(d-Arg)(d-Arg)(d-Arg)(d-Gln)(d-Arg)(d-Arg)] (H-[dY][dS][dS][dW][dS][dPhe(F5)][dCha][dR][dR][dR][dQ][dR][dR]-OH; N-terminus and C-terminus assumed)", "Appearance of side effect when used alone": ">50"}
    ]}
  ]
}
